Results: patent publication US20230085307A1, “PYRIDAZINONE COMPOUND AND HERBICIDE” (NISSAN CHEMICAL CORPORATION, priority 2019, published 2023)

tested on: windgrass; assay: Test Example 4: herbicidal effect by soil treatment (Table 19, symbol L); type: in vivo, windgrass (Apera spica-venti); details: amount of applied herbicide 320 g/ha
Summary of the method: (§1)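 Soil-surface application: an emulsion agent diluted with water to the predetermined dose is sprayed uniformly over seeds lying under roughly 1.5 cm of sterilized diluvial soil. Boxes stay in a greenhouse at 25° C. to 30° C. Three weeks later, each species is graded on previously defined criteria.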

SMILES	herbicidal effect rating, L: windgrass
CCOc1ccc(-c2sc3ccccc3c2-c2c(O)c(C)nn(C)c2=O)cn1 [1-076]	0 (Herbicidal rate of 5% or less (almost no effect))

tested on: velvetleaf; assay: Test Example 5: herbicidal effect by foliage application, plastic box (Table 20, symbol M); type: in vivo, velvetleaf (Abutilon theophrasti); details: foliage application, 320 g/ha, three weeks after application
Summary of the method: (§2)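 Sow seeds spot-wise in sterilized diluvial soil; cover with ~1.5 cm soil. Grow 14 days in greenhouse, 25° C. to 30° C. Spray foliage with emulsion diluted to predetermined amount. Rate effect after 3 weeks.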

SMILES	herbicidal effect grade, M: velvetleaf
CCOc1ccc(-c2sc3ccccc3c2-c2c(O)c(C)nn(C)c2=O)cn1 [1-076]	3 (Herbicidal rate of 40% or more and less than 70%)

tested on: velvetleaf; assay: Test Example 4: herbicidal effect by soil treatment (Table 19, symbol M); type: in vivo, velvetleaf (Abutilon theophrasti); details: amount of applied herbicide 320 g/ha
Summary of the method: as §1

SMILES	herbicidal effect rating, M: velvetleaf
CCOc1ccc(-c2sc3ccccc3c2-c2c(O)c(C)nn(C)c2=O)cn1 [1-076]	0 (Herbicidal rate of 5% or less (almost no effect))

tested on: Chinese sprangletop; assay: Test Example 3: herbicidal effect by foliage application, Wagner pot (Table 18, symbol D); type: in vivo, chinese sprangletop (Leptochloa chinensis); details: 320 g/ha
Summary of the method: (§3)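 Plants were sown in alluvial soil held under 0.1–0.5 cm standing water and grown 14 days in a greenhouse at 25–30 °C. An emulsifiable formulation, water-diluted to the set dose, was then sprayed onto the foliage, and effects were scored three weeks later using previously defined criteria.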

SMILES	herbicidal effect on D (Chinese sprangletop), rating 0-5
CCOc1ccc(-c2sc3ccccc3c2-c2c(O)c(C)nn(C)c2=O)cn1 [1-076]	0 (Herbicidal rate of 5% or less (almost no effect))

tested on: redroot pigweed; assay: Test Example 4: herbicidal effect by soil treatment (Table 19, symbol N); type: in vivo, redroot pigweed (Amaranthus retroflexus); details: amount of applied herbicide 320 g/ha
Summary of the method: as §1

SMILES	herbicidal effect rating, N: redroot pigweed
CCOc1ccc(-c2sc3ccccc3c2-c2c(O)c(C)nn(C)c2=O)cn1 [1-076]	0 (Herbicidal rate of 5% or less (almost no effect))

tested on: Italian ryegrass; assay: Test Example 4: herbicidal effect by soil treatment (Table 19, symbol K); type: in vivo, Italian ryegrass (Lolium multiflorum); details: amount of applied herbicide 320 g/ha
Summary of the method: as §1

SMILES	herbicidal effect rating, K: Italian ryegrass
CCOc1ccc(-c2sc3ccccc3c2-c2c(O)c(C)nn(C)c2=O)cn1 [1-076]	0 (Herbicidal rate of 5% or less (almost no effect))

tested on: redroot pigweed; assay: Test Example 5: herbicidal effect by foliage application, plastic box (Table 20, symbol N); type: in vivo, redroot pigweed (Amaranthus retroflexus); details: foliage application, 320 g/ha, three weeks after application
Summary of the method: as §2

SMILES	herbicidal effect grade, N: redroot pigweed
CCOc1ccc(-c2sc3ccccc3c2-c2c(O)c(C)nn(C)c2=O)cn1 [1-076]	2 (Herbicidal rate of 20% or more and less than 40%)

tested on: Italian ryegrass; assay: Test Example 5: herbicidal effect by foliage application, plastic box (Table 20, symbol K); type: in vivo, Italian ryegrass (Lolium multiflorum); details: foliage application, 320 g/ha, three weeks after application
Summary of the method: as §2

SMILES	herbicidal effect grade, K: Italian ryegrass
CCOc1ccc(-c2sc3ccccc3c2-c2c(O)c(C)nn(C)c2=O)cn1 [1-076]	1 (Herbicidal rate of 5% or more and less than 20%)

tested on: lambsquarters; assay: Test Example 5: herbicidal effect by foliage application, plastic box (Table 20, symbol O); type: in vivo, lambsquarters (Chenopodium album); details: foliage application, 320 g/ha, three weeks after application
Summary of the method: as §2

SMILES	herbicidal effect grade, O: lambsquarters
CCOc1ccc(-c2sc3ccccc3c2-c2c(O)c(C)nn(C)c2=O)cn1 [1-076]	1 (Herbicidal rate of 5% or more and less than 20%)

tested on: wild oat; assay: Test Example 5: herbicidal effect by foliage application, plastic box (Table 20, symbol I); type: in vivo, wild oat (Avena fatua); details: foliage application, 320 g/ha, three weeks after application
Summary of the method: as §2

SMILES	herbicidal effect grade, I: wild oat
CCOc1ccc(-c2sc3ccccc3c2-c2c(O)c(C)nn(C)c2=O)cn1 [1-076]	0 (Herbicidal rate of 5% or less (almost no effect))

tested on: chickweed; assay: Test Example 5: herbicidal effect by foliage application, plastic box (Table 20, symbol P); type: in vivo, common chickweed (Stellaria media); details: foliage application, 320 g/ha, three weeks after application
Summary of the method: as §2

SMILES	herbicidal effect grade, P: chickweed
CCOc1ccc(-c2sc3ccccc3c2-c2c(O)c(C)nn(C)c2=O)cn1 [1-076]	5 (Herbicidal rate of 90% or more (almost completely withered))

tested on: blackgrass; assay: Test Example 5: herbicidal effect by foliage application, plastic box (Table 20, symbol J); type: in vivo, blackgrass (Alopecurus myosuroides); details: foliage application, 320 g/ha, three weeks after application
Summary of the method: as §2

SMILES	herbicidal effect grade, J: blackgrass
CCOc1ccc(-c2sc3ccccc3c2-c2c(O)c(C)nn(C)c2=O)cn1 [1-076]	0 (Herbicidal rate of 5% or less (almost no effect))

tested on: southern crabgrass; assay: Test Example 5: herbicidal effect by foliage application, plastic box (Table 20, symbol F); type: in vivo, southern crabgrass (Digitaria ciliaris); details: foliage application, 320 g/ha, three weeks after application
Summary of the method: as §2

SMILES	herbicidal effect grade, F: southern crabgrass
CCOc1ccc(-c2sc3ccccc3c2-c2c(O)c(C)nn(C)c2=O)cn1 [1-076]	0 (Herbicidal rate of 5% or less (almost no effect))

tested on: windgrass; assay: Test Example 5: herbicidal effect by foliage application, plastic box (Table 20, symbol L); type: in vivo, windgrass (Apera spica-venti); details: foliage application, 320 g/ha, three weeks after application
Summary of the method: as §2

SMILES	herbicidal effect grade, L: windgrass
CCOc1ccc(-c2sc3ccccc3c2-c2c(O)c(C)nn(C)c2=O)cn1 [1-076]	0 (Herbicidal rate of 5% or less (almost no effect))

tested on: blackgrass; assay: Test Example 4: herbicidal effect by soil treatment (Table 19, symbol J); type: in vivo, blackgrass (Alopecurus myosuroides); details: amount of applied herbicide 320 g/ha
Summary of the method: as §1

SMILES	herbicidal effect rating, J: blackgrass
CCOc1ccc(-c2sc3ccccc3c2-c2c(O)c(C)nn(C)c2=O)cn1 [1-076]	0 (Herbicidal rate of 5% or less (almost no effect))

tested on: green foxtail; assay: Test Example 5: herbicidal effect by foliage application, plastic box (Table 20, symbol G); type: in vivo, green foxtail (Setaria viridis); details: foliage application, 320 g/ha, three weeks after application
Summary of the method: as §2

SMILES	herbicidal effect grade, G: green foxtail
CCOc1ccc(-c2sc3ccccc3c2-c2c(O)c(C)nn(C)c2=O)cn1 [1-076]	0 (Herbicidal rate of 5% or less (almost no effect))

tested on: barnyard grass; assay: Test Example 4: herbicidal effect by soil treatment (Table 19, symbol H); type: in vivo, barnyard grass (Echinochloa crus-galli); details: amount of applied herbicide 320 g/ha
Summary of the method: as §1

SMILES	herbicidal effect rating, H: barnyard grass
CCOc1ccc(-c2sc3ccccc3c2-c2c(O)c(C)nn(C)c2=O)cn1 [1-076]	0 (Herbicidal rate of 5% or less (almost no effect))

tested on: barnyard grass; assay: Test Example 5: herbicidal effect by foliage application, plastic box (Table 20, symbol H); type: in vivo, barnyard grass (Echinochloa crus-galli); details: foliage application, 320 g/ha, three weeks after application
Summary of the method: as §2

SMILES	herbicidal effect grade, H: barnyard grass
CCOc1ccc(-c2sc3ccccc3c2-c2c(O)c(C)nn(C)c2=O)cn1 [1-076]	0 (Herbicidal rate of 5% or less (almost no effect))

tested on: rice flat sedge; assay: Test Example 3: herbicidal effect by foliage application, Wagner pot (Table 18, symbol E); type: in vivo, rice flat sedge (Cyperus iria); details: 320 g/ha
Summary of the method: as §3

SMILES	herbicidal effect on E (rice flat sedge), rating 0-5
CCOc1ccc(-c2sc3ccccc3c2-c2c(O)c(C)nn(C)c2=O)cn1 [1-076]	5 (Herbicidal rate of 90% or more (almost completely withered))

tested on: green foxtail; assay: Test Example 4: herbicidal effect by soil treatment (Table 19, symbol G); type: in vivo, green foxtail (Setaria viridis); details: amount of applied herbicide 320 g/ha
Summary of the method: as §1

SMILES	herbicidal effect rating, G: green foxtail
CCOc1ccc(-c2sc3ccccc3c2-c2c(O)c(C)nn(C)c2=O)cn1 [1-076]	1 (Herbicidal rate of 5% or more and less than 20%)

tested on: southern crabgrass; assay: Test Example 4: herbicidal effect by soil treatment (Table 19, symbol F); type: in vivo, southern crabgrass (Digitaria ciliaris); details: amount of applied herbicide 320 g/ha
Summary of the method: as §1

SMILES	herbicidal effect rating, F: southern crabgrass
CCOc1ccc(-c2sc3ccccc3c2-c2c(O)c(C)nn(C)c2=O)cn1 [1-076]	0 (Herbicidal rate of 5% or less (almost no effect))

tested on: persian speedwell; assay: Test Example 5: herbicidal effect by foliage application, plastic box (Table 20, symbol R); type: in vivo, Persian speedwell (Veronica persica); details: foliage application, 320 g/ha, three weeks after application
Summary of the method: as §2

SMILES	herbicidal effect grade, R: persian speedwell
CCOc1ccc(-c2sc3ccccc3c2-c2c(O)c(C)nn(C)c2=O)cn1 [1-076]	5 (Herbicidal rate of 90% or more (almost completely withered))

tested on: wild oat; assay: Test Example 4: herbicidal effect by soil treatment (Table 19, symbol I); type: in vivo, wild oat (Avena fatua); details: amount of applied herbicide 320 g/ha
Summary of the method: as §1

SMILES	herbicidal effect rating, I: wild oat
CCOc1ccc(-c2sc3ccccc3c2-c2c(O)c(C)nn(C)c2=O)cn1 [1-076]	0 (Herbicidal rate of 5% or less (almost no effect))

tested on: chickweed; assay: Test Example 4: herbicidal effect by soil treatment (Table 19, symbol P); type: in vivo, common chickweed (Stellaria media); details: amount of applied herbicide 320 g/ha
Summary of the method: as §1

SMILES	herbicidal effect rating, P: chickweed
CCOc1ccc(-c2sc3ccccc3c2-c2c(O)c(C)nn(C)c2=O)cn1 [1-076]	5 (Herbicidal rate of 90% or more (almost completely withered))

tested on: barnyard grass; assay: Test Example 3: herbicidal effect by foliage application, Wagner pot (Table 18, symbol H); type: in vivo, barnyard grass (Echinochloa crus-galli); details: 320 g/ha
Summary of the method: as §3

SMILES	herbicidal effect on H (barnyard grass), rating 0-5
CCOc1ccc(-c2sc3ccccc3c2-c2c(O)c(C)nn(C)c2=O)cn1 [1-076]	1 (Herbicidal rate of 5% or more and less than 20%)

tested on: lambsquarters; assay: Test Example 4: herbicidal effect by soil treatment (Table 19, symbol O); type: in vivo, lambsquarters (Chenopodium album); details: amount of applied herbicide 320 g/ha
Summary of the method: as §1

SMILES	herbicidal effect rating, O: lambsquarters
CCOc1ccc(-c2sc3ccccc3c2-c2c(O)c(C)nn(C)c2=O)cn1 [1-076]	0 (Herbicidal rate of 5% or less (almost no effect))

tested on: persian speedwell; assay: Test Example 4: herbicidal effect by soil treatment (Table 19, symbol R); type: in vivo, Persian speedwell (Veronica persica); details: amount of applied herbicide 320 g/ha
Summary of the method: as §1

SMILES	herbicidal effect rating, R: persian speedwell
CCOc1ccc(-c2sc3ccccc3c2-c2c(O)c(C)nn(C)c2=O)cn1 [1-076]	5 (Herbicidal rate of 90% or more (almost completely withered))
